Measured values reported in ChEMBL document CHEMBL1201862, “PubChem BioAssay data set” (2004).
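Compound exposure: 48 hours, 5 concentrations, 96-well plates. GI50 is the concentration that inhibits growth by half.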 Calls of active or inactive are those of the source. No stated cut-off is given here; in the data, active = GI50 up to about 1.1 µM and inactive = higher.

Experiments:
Assay in all cases: NCI anticancer screen, dose series, 48 h
NCI-H460 = test system: NCI-H460
NCI-H522 = test system: NCI-H522
SNB-75 = test system: SNB-75
A549 = test system: A549
HOP-92 = test system: HOP-92
HT-29 = test system: HT-29
SK-MEL-2 = test system: SK-MEL-2
SK-OV-3 = test system: SK-OV-3
KM12 = test system: KM12
LOX IMVI = test system: LOX IMVI
RPMI-8226 = test system: RPMI-8226
SF-268 = test system: SF-268
SR = test system: SR
CCRF-CEM = test system: CCRF-CEM
SF-539 = test system: SF-539
HL-60 = test system: HL-60
HCT-116 = test system: HCT-116
SW-620 = test system: SW-620
HCC 2998 = test system: HCC 2998

Brc1ccc(C2SCc3nc4ccccc4n32)cc1 (configuration not stated)
GI50 (NCI-H460): 12.9 µM (inactive)
GI50 (NCI-H522): 2.3 µM (inactive)
GI50 (SNB-75): < 0.01 µM (active)
GI50 (A549): 19 µM (inactive)
GI50 (HOP-92): 1.06 µM (active)
GI50 (HT-29): 7.78 µM (inactive)
GI50 (SK-MEL-2): 14.1 µM (inactive)
GI50 (SK-OV-3): 16.7 µM (inactive)
GI50 (KM12): 5.98 µM (inactive)
GI50 (LOX IMVI): 6.46 µM (inactive)
GI50 (RPMI-8226): 5.08 µM (inactive)
GI50 (SF-268): 13.6 µM (inactive)
GI50 (SR): 7.6 µM (inactive)
GI50 (CCRF-CEM): 15.7 µM (inactive)
GI50 (SF-539): 18.5 µM (inactive)
GI50 (HL-60): 3.19 µM (inactive)
GI50 (HCT-116): 6.3 µM (inactive)
GI50 (SW-620): 13.3 µM (inactive)

COC1=CC(=O)C2C(C1=O)C(c1ccccc1)[C@H]2C (some centres not stated)
GI50 (NCI-H460): > 100 µM (inactive)
GI50 (SNB-75): 32.3 µM (inactive)
GI50 (A549): > 100 µM (inactive)
GI50 (HOP-92): 25.7 µM (inactive)
GI50 (HT-29): > 100 µM (inactive)
GI50 (SK-MEL-2): > 100 µM (inactive)
GI50 (SK-OV-3): > 100 µM (inactive)
GI50 (KM12): > 100 µM (inactive)
GI50 (LOX IMVI): > 100 µM (inactive)
GI50 (RPMI-8226): 35.9 µM (inactive)
GI50 (SF-268): > 100 µM (inactive)
GI50 (SR): 31.6 µM (inactive)
GI50 (CCRF-CEM): 28.4 µM (inactive)
GI50 (SF-539): > 100 µM (inactive)
GI50 (HCC 2998): > 100 µM (inactive)
GI50 (HL-60): 38.9 µM (inactive)
GI50 (SW-620): 18.5 µM (inactive)

CC(C)/C=C1\CCC(CN2CCCC2)C1=O (configuration not stated)
GI50 (NCI-H460): 39 µM (inactive)
GI50 (NCI-H522): 1.95 µM (inactive)
GI50 (A549): 13.8 µM (inactive)
GI50 (HOP-92): 17.5 µM (inactive)
GI50 (HT-29): 9.73 µM (inactive)
GI50 (SK-MEL-2): 20.7 µM (inactive)
GI50 (SK-OV-3): > 100 µM (inactive)
GI50 (KM12): 10 µM (inactive)
GI50 (LOX IMVI): 19.9 µM (inactive)
GI50 (RPMI-8226): 0.472 µM (active)
GI50 (SF-268): 22.3 µM (inactive)
GI50 (SR): 2.82 µM (inactive)
GI50 (CCRF-CEM): 3.48 µM (inactive)
GI50 (SF-539): 18.7 µM (inactive)
GI50 (HCC 2998): 19.5 µM (inactive)
GI50 (HL-60): 3.51 µM (inactive)
GI50 (HCT-116): 8.97 µM (inactive)
GI50 (SW-620): 2.44 µM (inactive)

CC(=O)c1ccc(-c2oc(-c3ccccc3)cc2-c2ccc3c(c2)OCO3)s1
GI50 (NCI-H460): 68.5 µM (inactive)
GI50 (SNB-75): > 100 µM (inactive)
GI50 (HOP-92): > 100 µM (inactive)
GI50 (HT-29): > 100 µM (inactive)
GI50 (SK-OV-3): > 100 µM (inactive)
GI50 (RPMI-8226): > 100 µM (inactive)
GI50 (SF-268): 34.4 µM (inactive)
GI50 (SR): > 100 µM (inactive)
GI50 (CCRF-CEM): 0.0313 µM (active)
GI50 (SF-539): > 100 µM (inactive)
GI50 (HCC 2998): > 100 µM (inactive)
GI50 (HL-60): 1.02 µM (active)
GI50 (HCT-116): > 100 µM (inactive)
GI50 (SW-620): > 100 µM (inactive)

CCCCCCCCc1cc2c(O)c(c1)Cc1cc(CCCCCCCC)cc(c1O)Cc1cc(CCCCCCCC)cc(c1O)Cc1cc(CCCCCCCC)cc(c1O)Cc1cc(CCCCCCCC)cc(c1O)Cc1cc(CCCCCCCC)cc(c1O)C2
GI50 (NCI-H460): > 100 µM (inactive)
GI50 (SNB-75): > 100 µM (inactive)
GI50 (A549): > 100 µM (inactive)
GI50 (HOP-92): > 100 µM (inactive)
GI50 (HT-29): > 100 µM (inactive)
GI50 (SK-MEL-2): > 100 µM (inactive)
GI50 (SK-OV-3): > 100 µM (inactive)
GI50 (KM12): > 100 µM (inactive)
GI50 (LOX IMVI): > 100 µM (inactive)
GI50 (SF-268): > 100 µM (inactive)
GI50 (SR): > 100 µM (inactive)
GI50 (CCRF-CEM): > 100 µM (inactive)
GI50 (SF-539): > 100 µM (inactive)
GI50 (HCC 2998): > 100 µM (inactive)
GI50 (HL-60): > 100 µM (inactive)
GI50 (HCT-116): > 100 µM (inactive)
GI50 (SW-620): > 100 µM (inactive)

O=C1CC[C@@H](NC(=O)Cc2ccccc2)C(=O)N1
GI50 (NCI-H460): > 100 µM (inactive)
GI50 (NCI-H522): > 100 µM (inactive)
GI50 (SNB-75): > 100 µM (inactive)
GI50 (A549): > 100 µM (inactive)
GI50 (HOP-92): > 100 µM (inactive)
GI50 (HT-29): > 100 µM (inactive)
GI50 (SK-MEL-2): > 100 µM (inactive)
GI50 (SK-OV-3): > 100 µM (inactive)
GI50 (KM12): > 100 µM (inactive)
GI50 (LOX IMVI): > 100 µM (inactive)
GI50 (RPMI-8226): > 100 µM (inactive)
GI50 (SF-268): > 100 µM (inactive)
GI50 (SR): > 100 µM (inactive)
GI50 (CCRF-CEM): > 100 µM (inactive)
GI50 (SF-539): > 100 µM (inactive)
GI50 (HCC 2998): > 100 µM (inactive)
GI50 (HCT-116): > 100 µM (inactive)
GI50 (SW-620): > 100 µM (inactive)
